{"source": "patent US9127136B1", "about": "“Purification of monomer from recycle polyesters” (SABIC Global Technologies B.V, priority 2014, dated 2015)", "assay": "Solubility of BHET in different solvents (shaken 2 hours, analyzed by HPLC)", "type": "physicochemical", "protocol": "Solubility of BHET in Different Solvents\n10 ml of the designated solvent was added to a scintillation vial with 2 g of BHET. The vial was placed in a shaker, shaken for 2 hours and the contents were analyzed by HPLC.", "data": [{"smiles": "O=C(OCCO)c1ccc(C(=O)OCCO)cc1", "note": "[BHET, bis(2-hydroxyethyl) terephthalate]", "values": [{"measurement": "solubility of BHET in 45% THF/Hexanes (estimated)", "setting": "solvent: 45% THF/Hexanes, estimated from 12.6% solubility in THF", "result": 5.67, "unit": "%"}, {"measurement": "% Solubility (w/v)", "setting": "solvent: Acetone", "result": "9.09 % (w/v)"}, {"measurement": "% Solubility (w/v)", "setting": "solvent: Acetonitrile", "result": "4.98 % (w/v)"}, {"measurement": "% Solubility (w/v)", "setting": "solvent: DMF", "result": "60 % (w/v)"}, {"measurement": "% Solubility (w/v)", "setting": "solvent: Dichloromethane", "result": "1.12 % (w/v)"}, {"measurement": "% Solubility (w/v)", "setting": "solvent: Ethanol", "result": "8.61 % (w/v)"}, {"measurement": "% Solubility (w/v)", "setting": "solvent: Methanol", "result": "13.75 % (w/v)"}, {"measurement": "% Solubility (w/v)", "setting": "solvent: THF", "result": "12.6 % (w/v)"}, {"measurement": "% Solubility (w/v)", "setting": "solvent: ethylene glycol", "result": "2.81 % (w/v)"}, {"measurement": "% Solubility (w/v)", "setting": "solvent: hexanes", "result": "_~0 % (w/v)"}, {"measurement": "% Solubility (w/v)", "setting": "solvent: iso-propanol", "result": "6.16 % (w/v)"}, {"measurement": "solubility thermodynamic at 2 h", "setting": "thermodynamic from solid, solvent: water", "result": 5000, "unit": "µg/mL"}]}]}
